Reference: patent US6475719B1, “Determination of factors affecting gene regulation and/or gene replication” (priority 1989, dated 2002)

Assays:
B. subtilis 1A40 cells = test: Light emission, click beetle luciferase (pCSS962), IPTG induced; format: cell-based, Bacillus subtilis; details: incubation 2 hours at 30° C.; FIG. 11b
Procedure: Using this construction, the production of luciferase can be turned on in B. subtilis by simple addition of IPTG, which binds to the lac repressor coded by the helper plasmid pBL1 present in the same cell. After IPTG binds to the repressor, the repressor cannot bind to the DNA region between phage T5 promoter and the luciferase gene thus allowing the expression of luciferase. Cells containing both plasmids were cultured overnight in 2×TY containing erythromycin (10 μg/ml, to keep pBL1 in the cell) and kanamycin (10 μg/ml, to keep pCSS952 in the cell). A suitable dilution was made and different amounts of antibiotic were added to the cells. After an incubation period of 2 hours at 30° C., the tubes were measured for light emission after addition of 1 mM D-luciferin substrate in 0.1 M Na-citrate. As shown in FIG. 11b a low amount of 0.1 ug/ml ampicillin and even lower amounts of oxytetracyclin and streptomycin can be detected.

metallothioneins = details: cadmium added to growth medium to 4×10^−6 molar; eucaryotic cells; cited from earlier work
[1] = test system: E. coli pCSS112/K-12 HI trp(c1857); test: Light production, bacterial luciferase under PL promoter (pCSS112); format: cell-based, Escherichia coli; details: concentration in the measuring cuvette; 20 min at 30° C., 42° C. for 10 minutes
Procedure: A comparison is made between plasmids where the expression of bacterial luciferase genes are controlled by either lac (slow) or PL promoter (fast) promoters. E. coli clone pCSS112/K-12 HI trp(c1857) was grown overnight in 2×TY medium containing ampicillin 100 μg/ml. After this a suitable dilution was made in HBSS-buffer or in milk and 500 μl of this was added to 3 ml luminometer tubes. The tubes were equilibrated to 30° C. and different amounts of various toxic substances were added to tubes. Tubes were kept at 30° C. for 20 min, after which the temperature was shifted to 42° C. for 10 minutes. Thereafter the tubes were removed to luminometer chamber which had been equilibrated to 30° C. for automated measurement. As a comparison, an E. coli JM103 clone containing plasmid pCSS108 was used as a control. The control cells were treated similarly but without the heat-shock step. Messanger RNA and protein synthesis were induced in the control cells by adding IPTG to 1 mM. […] In case of chloramphenicol, the kinetics of light production have been shown in FIG. 11a when plasmid pCSS112 in E. coli K-12 HI trp(c1857) strain is used.
The following examples show detection of substances affecting other biosynthetic routes and metabolism of cells. […]
The following figures show the effect of each tested substance as measured by light production. […]

[2] = test system: E. coli pCSS123/JM103 cells; test: Change in plasmid copy number: total DNA from heat-treated cells, agarose gel; format: cell-based, Escherichia coli; details: 42° C. for one hour; tested at 0, 1, 10 and 100 μg/ml; FIG. 8
Procedure: The plasmid pCSS123 described in the instant invention is a runaway-replication plasmid, in which a change in copy number can be obtained by shifting the temperature (FIG. 8). The effect of nalidixic acid, an agent known to inhibit DNA replication of cell DNA and especially of plasmid pCSS123 DNA, is shown in FIG. 8.
E. coli pCSS123/JM103 cells were cultivated in 20 ml of 2×TY at 30° C. in four Erlenmeyer bottles until the absorbance measured at 600 nm was 0.3. Nalidixic acid, a known inhibitor of DNA replication, was added to a final concentration of 0, 1, 10 and 100 μg/ml. Parallel samples of 1.5 ml from each bottle were immediately withdrawn to 15 ml tubes and kept at 30° C. for 20 min. The tubes were transferred to 42° C. for one hour and the bottles were left at 30° C. After one hour, both the tubes and the bottles were kept for an additional hour at 30° C. in a shaker. Total-DNA was extracted from 1.5 ml of culture.
Cells were centrifuged and the pellets were suspended in 500 μl 50 mM TRIS-HC1, pH 8.0, 50 mM EDTA. Cells were kept in an ice bath for 30 min and 50 μl of lysozyme (10 mg/ml) was added and kept in an ice bath for 45 min. One hundred μl of STEP solution (0.5% SDS, 50 mM TRIS-HC1, pH 7.5, 0.4 M EDTA) was added and kept at 50° C. for 60 min. After this, 600 μl of phenol was added and the tubes were gently mixed for 5 min and centrifuged 10 min at 12000×g. […]

[3] = test system: E. coli pCSS123/JM103 cells; test: Light production by cells with runaway-replication plasmid pCSS123; format: cell-based, Escherichia coli; details: 20 min at 30° C., 42° C. one hour, IPTG 1 mM; FIG. 9a
Procedure: E. coli pCSS123/JM103 cells grown overnight were diluted 1:1000. Diluted cells in 2×TY were taken (0.5 ml) and various amounts of antibiotics or other toxic substances were added. These solutions were incubated 20 min at 30° C. After this the samples were transferred to 42° C. for one hour. Each tube was thereafter incubated at 30° C. in a waterbath and IPTG was added to 1 mM and n-decanal to 0.01%. The tubes were transferred to an automated light-gathering device, i.e., luminometer 1251 (LKB-Wallac, Turku, Finland) whose measuring chamber had been equilibrated to 30° C. Measurement of light emission by the cells was done with the auto-mode program so that each tube was automatically measured every two minutes. Data were collected in the memory of the computer for later analyses. […] For clarity reasons only two concentrations of chloramphenicol were compared to the untreated control.

E. coli pCSS123/BW322 = details: heat induced at 42° C. for 25 minutes; FIG. 9d
Procedure: Freeze-dried E. coli pCSS123/BW322 were reconstituted with 1.0 ml of 2×TY and 45 μl of this was diluted 1:10 with 2×TY. Five μl of trimethoprim dilutions were added and kept at room temperature for 25 minutes. Cells were heat induced at 42° C. for 25 minutes and equilibrated to 30° C. in a water bath for 10 minutes. n-decanal was added to 0.001% and light production was measured using a LKB-Wallac 1250 manual luminometer. Same concentrations of trimethoprim together with reconstituted, freeze-dried cells which were not heat-treated acted as controls.

SMILES: CC1(C)S[C@@H]2[C@H](NC(=O)[C@H](N)c3ccccc3)C(=O)N2[C@H]1C(=O)O [ampicillin]
- amount that can be detected by light emission (B. subtilis 1A40 cells): 0.1 µg/mL

SMILES: [Cd] [cadmium]
- increase in the production of metallothioneins (metallothioneins): over fifty

SMILES: O=C(N[C@H](CO)[C@H](O)c1ccc([N+](=O)[O-])cc1)C(Cl)Cl [chloramphenicol]
- lowest concentration giving differences in measured activity (light production) from the start of measurement [1]: 0.1 µg/mL

SMILES: CCn1cc(C(=O)O)c(=O)c2ccc(C)nc21 [nalidixic acid]
- amount of nalidixic acid in whose presence DNA content was unaffected (no heat-induced increase of plasmid DNA) [2]: ≥ 1 µg
- amount that can be detected very quickly by light emission [3]: 2 µg

SMILES: COc1cc(Cc2cnc(N)nc2N)cc(OC)c1OC [trimethoprim]
- sensitivity of detection by light production (E. coli pCSS123/BW322): sensitivity of the assay is very high
